Test results: PubChem BioAssay (NCI)
Values joined by “and” are separate entries in the source; they are usually repeats but may differ in a detail not shown here. Identical values can stand only once.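 Briefly, cells in 96-well plates were exposed to five compound concentrations for 48 h, and endpoints were estimated by linear interpolation. GI50 = concentration required for 50% inhibition of growth. At the TGI there is no net growth.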

What was measured:
Assay in all cases: DTP human tumour cell line panel, 48 h
A549 NSCLC = test system: A549 NSCLC
HCT-15 colon = test system: HCT-15 colon
HOP-92 NSCLC = test system: HOP-92 NSCLC
MDA-MB-231 breast = test system: MDA-MB-231 breast
NCI-H460 lung = test system: NCI-H460 lung
NCI-H522 lung = test system: NCI-H522 lung
OVCAR-3 ovarian = test system: OVCAR-3 ovarian
SN12C renal = test system: SN12C renal
SNB-19 CNS = test system: SNB-19 CNS
SW-620 colon = test system: SW-620 colon

Row | Structure (SMILES) | GI50 (A549 NSCLC) [µM] | TGI (A549 NSCLC) [µM] | GI50 (HCT-15 colon) [µM] | TGI (HCT-15 colon) [µM] | GI50 (HOP-92 NSCLC) [µM] | TGI (HOP-92 NSCLC) | GI50 (MDA-MB-231 breast) [µM] | TGI (MDA-MB-231 breast) [µM] | GI50 (NCI-H460 lung) [µM] | TGI (NCI-H460 lung) [µM] | GI50 (NCI-H522 lung) [µM] | TGI (NCI-H522 lung) [µM] | GI50 (OVCAR-3 ovarian) [µM] | TGI (OVCAR-3 ovarian) [µM] | GI50 (SN12C renal) [µM] | TGI (SN12C renal) | GI50 (SNB-19 CNS) [µM] | TGI (SNB-19 CNS) [µM] | GI50 (SW-620 colon) [µM] | TGI (SW-620 colon) [µM]
1 | CC/C=C\C[C@H]1C/C=C2/C(=O)C=C[C@@H]2C/C=C\CCCC(=O)O1 | 2.23 | 9.05 | 0.423 | 2.86 | 2.34 | 5.93 µM | 2.76 | 13.2 | 2.16 | 8.86 | 0.57 | 2.45 | 0.734 | 3.9 | 0.986 | 4.34 µM | 2.09 | 11.7 | 0.454 | 5.52
2 | COc1cc(/C=C/c2ccc(OC)c(OC)c2)cc(OC)c1 |  | > 100 |  | 23.7 |  | > 100 µM |  | 52 |  | 73.6 |  | 66.4 |  | 69 |  | 96.6 µM |  | > 100 |  | > 100
3 | CC1=CC(C/C(C)=C/COc2ccc3ccc(=O)oc3c2)OC1=O (configuration not stated) |  | > 100 |  | > 100 |  | > 100 µM |  | > 100 |  | > 100 |  | > 100 |  | > 100 |  | > 100 µM |  | > 100 |  | > 100
4 | O=C1NC(=O)C(CC2CCCCCCCCCCC2=O)C(=O)N1 (configuration not stated) |  | > 100 |  | > 100 |  | > 100 µM |  | > 100 |  | > 100 |  | > 100 |  | > 100 |  | > 100 µM |  | > 100 |  | > 100
5 | Cc1ccc2[nH]c(O)c(N=Nc3ccc(S(N)(=O)=O)cc3)c2c1 | 9.66 | > 25 | 11.1 | > 25 | > 25 | > 25 µM | > 25 | > 25 | 6.86 | > 25 | 8.94 | > 25 | 6.73 | > 18.4 | 15.4 | > 25 µM | > 19.1 | > 25 | 10.2 | > 25
6 | CCn1c(-c2ccc(OC(C)=O)cc2)c(C)c2cc(OC(C)=O)ccc21 |  | 67.9 |  | > 100 |  | > 100 µM |  | 38.3 |  | 56.4 |  | 40 |  | 42.1 |  | 79 µM |  | > 100 |  | 82.2
7 | CC1=C[C@H]2c3c(c(O)c(O)c4oc(-c5ccccc5)cc(=O)c34)[C@H](c3cc(O)c(O)c4oc(-c5ccccc5)cc(=O)c34)[C@H]2C(C)(C)C1 | 0.29 | 13.8 | 1.82 | 10.4 | 1.36 | 5.84 µM | 2.71 | 17.7 | 0.275 | 1.83 | 1.77 | 6.23 | 1.46 | 12 | 1.09 | 7.31 µM | 0.557 | 17 | 0.934 | 13.9
8 | O=C(CCC1OCCO1)Nc1cc(NCc2ccccc2)ccc1OCc1ccccc1 |  | > 100 |  | > 100 |  | 73.3 µM |  | > 100 |  | > 100 |  | 78.6 |  |  |  | > 100 µM |  | > 100 |  | > 100
9 | O=C1CSC(c2ccc(Cl)cc2Cl)N1c1ccc(F)cc1 (configuration not stated) | 19.1 | 36.1 | 17.2 | 31 | 17.6 | 32.8 µM | 16.1 | 30.4 | 16 | 29.9 | 15.1 | 31.1 | 17.2 | 32.1 | 16.7 | 30.6 µM |  |  | 21.7 | 37.5
10 | O=C(O)C1C(Br)(c2ccccc2)C1(Br)c1ccccc1 (configuration not stated) |  | > 100 |  | 47.5 |  | > 100 µM |  | > 100 |  | > 100 |  | 43.9 |  | > 100 |  | > 100 µM |  | > 100 |  | > 100
11 | COc1cc(C(=O)c2cc(C)c3[nH]c4ccc(C)cc4c3c2C)cc(OC)c1OC | < 0.01 | > 100 | < 0.01 | > 100 | < 0.01 | 5.86 µM | < 0.01 |  | < 0.01 | > 100 | < 0.01 |  | < 0.01 |  | < 0.01 | > 100 µM | < 0.01 | > 100 | < 0.01 | > 100
12 | CC(C)C[C@H](NC(=O)/C=C/Cn1ccc2ccccc2c1=O)B(O)O | 5.35 | > 100 | 6.55 | 48.2 | 6.49 | 30.4 µM | 2.85 | 8.14 | 12.7 | 97.5 | 2.52 | 6.39 | 2.55 | 7.88 | 6.32 | > 100 µM | 6.49 | > 100 | 3.55 | > 100
13 | CC(C)(C[C@H]1CN(S(=O)(=O)c2cccc(C(F)(F)F)c2)c2cc(-c3cc(F)cc(OC(F)F)c3)ccc2O1)C(=O)O | 4.85 | 17.9 | 4.19 | 16.9 | 3.1 | 16.8 µM | 13.3 | 34 | 4.1 | 16.3 | 2.5 | 10.7 | 3.76 | 14.1 | 11.3 | 28 µM | 5.92 | 20.7 | 5.02 | 21.5
14 | Nc1ccc(-c2nc3ccc(Cc4ccc5nc(-c6ccc(N)cc6)[nH]c5c4)cc3[nH]2)cc1 | 20.8 | 57.7 | 14.8 | 47.9 | 16.5 | 39 µM | 2.14 | 5.18 | 14.4 | 37.1 | 1.97 | 4.87 | 1.76 | 3.31 | 8.75 | 29 µM | 3.24 | 18.2 | 1.8 | 3.46
15 | C[C@H](O)C(=O)N1CCC(CCn2c(Sc3cc4c(cc3Br)OCO4)nc3c(N)ncnc32)CC1 | 0.869 | > 100 | 1.3 | > 100 | 2.19 | > 100 µM | 1.46 | 31.9 | 0.432 | > 100 | 0.791 | > 52.2 | 3.28 | > 100 | 0.725 | > 100 µM | 3.7 | > 100 | 0.49 | > 100
16 | Nc1nc(F)nc2c1ncn2C1OC(CO)C(O)C1O (configuration not stated) | 35.6 | > 100 | 56.7 | > 100 | 14 | > 100 µM and 97.6 µM |  | > 100 | 43.2 | > 100 | 18.4 | > 100 |  | > 100 | 5.55 | > 72.2 µM and 45.1 µM | 14.6 | > 100 | 60.2 | > 100
17 | COc1ccc(CC2NCCc3cc(OC)c(OC)cc32)cc1Br (configuration not stated) |  | > 100 |  | > 100 |  | 61.7 µM |  | 57.3 |  | > 71.4 |  | > 100 |  | > 100 |  | > 100 µM |  | > 100 |  | > 70.5
18 | Br[C](Br)(Br)[Hg][c]1ccccc1 | 29.4 | 59.5 | 9.39 | 24 | 12.5 | 25.3 µM | 18.1 | 41.3 | 16.8 | 37.9 | 1.44 | 3.05 | 9.76 | 23.3 | 16.2 | 29.7 µM | 16.6 | 30.6 | 1.65 | 8.01
19 | O=C1Nc2ccc(F)cc2/C1=C/c1ccc[nH]1 | > 25 | > 25 | 11.5 | > 25 | > 14.1 | > 25 µM | 7.65 | > 25 | > 25 | > 25 | > 25 | > 25 | > 18.4 | > 25 | > 25 | > 25 µM | > 25 | > 25 | 24.6 | > 25
20 | C#Cc1c(I)n(C2OC(CO[Si](C)(C)C(C)(C)C)C3OC(C)(C)OC32)c(=O)[nH]c1=O (configuration not stated) | 49.6 | > 100 | 4.09 | > 100 | 12.4 | 26.1 µM | 5.24 | 19.9 | 20 | 40.4 | 1.72 | 3.52 | 1.65 | 3.56 | 18.5 | 37.6 µM | 24.1 | 78.8 | 2.36 | 6.42
21 | C=C1C(=O)OC2/C=C(\COC(C)=O)CCC(OC(C)=O)C3=CC(OC3=O)C12 (configuration not stated) |  | 43 |  | 7.76 |  | 12.5 µM |  | 41.7 |  | 37.8 |  | 1.14 |  | 12.4 |  | 18.9 µM |  | 36.3 |  | 4.47
22 | ClCc1cccc(Cn2cnc3nc(Cl)nc(Cl)c32)c1 | 6.46 | 19.8 | 0.955 | 2.13 | 1.46 | 2.78 µM | 0.234 | 0.694 | 1.72 | 3.09 | 1.84 | 3.79 | 1.53 | 2.86 |  |  | 1.32 | 2.69 | 0.419 | 1.67
23 | O=c1c2ccccc2c(=O)c2c1[nH]c1c(-c3ccccc3)c(-c3ccccc3)c(=O)c12 | 2.07 | 6.6 | 1.31 | 4.22 | 3.23 | 12.7 µM | 4.97 | 43 | 2.82 | 12 | 2.19 | 5.73 | 1.92 | 4.48 | 3.57 | 16 µM | 3.26 | 11.8 | 3.85 | 14.1
24 | COc1ccc2cc(C(C)C(=O)N3CCOC3=O)ccc2c1 (configuration not stated) |  | > 100 |  | > 100 |  | > 100 µM |  | > 100 |  | > 100 |  | > 100 |  | > 100 |  | > 100 µM |  | > 100 |  | > 100
25 | O=c1cccc(C#CC#CC2=CCCCC2)o1 | 10.1 | > 47.7 | 2.76 | 10.9 |  | > 23 µM | 1.96 | 5.3 | 10.6 | 21.8 | 4.03 | 10.9 | 6.66 | 10.4 | 0.516 | 1.48 µM | 12 | 32.6 | 3.4 | 18.2
26 | CN(C)C(=O)[C@H](O)[C@H](Cc1ccccc1)NC(=O)c1cc2cc(Cl)ccc2[nH]1 | 24 | > 93.3 | 22.4 | 81.5 | 17 | 56.8 µM | 19.6 | 52.8 | 22 | 56.1 | 21.5 | 68.7 | 18.5 | 43.5 | 23.5 | > 95.1 µM | 26.1 | > 100 | 26.4 | > 100
27 | C[C@]12CC[C@@H]3c4cc(OCC(F)(F)F)c(O)cc4/C(=N/O)C[C@H]3[C@@H]1CC[C@@H]2O |  | 35.6 | 0.0487 | > 42.5 |  | 26.3 µM |  | 1.5 | 0.0362 | 3.79 | 0.0507 | 25.6 |  | 0.0269 |  | 48.3 µM |  | > 63.1 | 0.0403 | > 48.1
28 | O=c1cc(NC2CCN(CCCc3ccccc3)CC2)c2cc(Cl)ccc2o1 | 13.4 | 28.6 | 3.89 | 17.4 | 11.9 | 27.7 µM | 9.42 | 22.9 | 15.7 | 29.6 | 8.35 | 23.5 | 6.6 | 19.4 | 13 | 28.2 µM | 13.4 | 29.8 | 15 | 30.5
29 | CC1=C(O)C(=O)C=C2C1=CC=C1[C@@]2(C)CC[C@@]2(C)[C@@H]3C[C@](C)(C(=O)O)CC[C@]3(C)CC[C@]12C |  | 2.03 |  | 0.0282 |  | 0.0777 µM |  | 0.0664 |  | 0.384 |  | 0.0389 |  | 0.0941 |  | 0.142 µM |  | 0.23 |  | 
